The target of one experiment is T1, CDK1/Cyclin B complex (Homo sapiens, UniProt P06493).
T1 construct: purchased Upstate Inc. 14-450
Briefly: In vitro kinase assay, CDK1/Cyclin B complex. It is filed as biochemical. The following applies: recombinant protein (Upstate). As to the method:
(§1) Inhibitory activity against Aurora A, CDK1/Cyclin B complex, CDK2/Cyclin E complex and CDK3/Cyclin E complex were measured by in vitro kinase assay using recombinant proteins. The assays were carried out by using recombinant proteins (Upstate Inc.) for Aurora A, CDK1/Cyclin B complex, CDK2/Cyclin E complex and CDK3/Cyclin E complex (respective cat. nos. 14-511, 14-450, 14-448 and 14-487), in accordance with the procedure described in the product instructions thereof. The 50% inhibitory concentrations (IC50 values) were calculated by assigning measured values in the case of not containing a test compound to an inhibition of 0%, and assigning measured values in the case of not containing a test compound and enzyme to an inhibition of 100%.

A further experiment deals with CDK2/Cyclin E complex (Homo sapiens, UniProt P24941). The experiment can be described thus: In vitro kinase assay, CDK2/Cyclin E complex. It is filed as biochemical. The following applies: recombinant protein (Upstate); read-out: CDK2/cyclinE IC50. As to the method: (§2) Inhibitory activity against Aurora A, CDK1/Cyclin B complex, CDK2/Cyclin E complex and CDK3/Cyclin E complex were measured by in vitro kinase assay using recombinant proteins.

A further experiment has as its target T2, CDK3/Cyclin E complex (Homo sapiens, UniProt Q00526).
T2 construct: purchased Upstate Inc. 14-487
Briefly: In vitro kinase assay, CDK3/Cyclin E complex. It is filed as biochemical. As to conditions: recombinant protein (Upstate); read-out: CDK3/cyclinE IC50. As to the method: as §2

Another experiment has as its system leukemia cell line KG-1a. The experiment can be described thus: Cell proliferation inhibitory activity, KG-1a. The class given is cell-based. As to conditions: Homo sapiens, 96 h, cells counted 4 days later with Cell Counting Kit-8. Here is the method: (§3) Evaluations were carried out using colon carcinoma cell line SW620 (Cat. No. CCL-227), lung carcinoma cell line NCI-H460 (Cat. No. HTB-177), prostate cancer cell line DU 145 (Cat. No. HTB-81), breast cancer cell line MDA-MB-231 (Cat. No. HTB26) and leukemia cell line KG-1a (Cat. No. CCL-246.1) purchased from ATCC, pancreatic cancer cell line MIAPaCa-2 (Cat. No. CRL-1420) purchased from Dainippon Pharmaceutical, and ovarian cancer cell line IGROV1 received from the Netherland Cancer Institute. The cells were cultured under the conditions recommended by the supplier for each cell line, or with respect to IGROV1, according to the method described in Cancer Res. 59: 4559-4563, 1999. Cells suspended in media were added to solutions containing the test substances at various concentrations followed by culturing in a 5% CO2 incubator at 37° C. The numbers of cells were counted 4 days later with the Cell Counting Kit-8. IC50 values were calculated by assigning measured values in the case of not containing a test substance to an inhibition of 0%, and assigning measured values in the case of not containing a test substance or cells to an inhibition of 100%.

The next experiment deals with T3, Aurora A (Homo sapiens, UniProt O14965).
T3 construct: purchased Upstate Inc. 14-511
T3 sequence (O14965 1-403): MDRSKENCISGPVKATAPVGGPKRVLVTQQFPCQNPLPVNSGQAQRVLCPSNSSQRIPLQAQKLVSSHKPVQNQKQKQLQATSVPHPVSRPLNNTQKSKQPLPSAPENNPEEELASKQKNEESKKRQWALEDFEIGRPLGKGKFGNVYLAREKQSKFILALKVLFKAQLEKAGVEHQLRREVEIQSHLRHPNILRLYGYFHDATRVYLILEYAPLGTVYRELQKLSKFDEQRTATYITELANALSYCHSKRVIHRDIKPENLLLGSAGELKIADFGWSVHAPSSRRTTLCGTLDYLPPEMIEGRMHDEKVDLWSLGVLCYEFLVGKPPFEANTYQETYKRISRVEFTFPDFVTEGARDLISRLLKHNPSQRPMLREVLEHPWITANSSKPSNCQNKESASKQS
Briefly: In vitro kinase assay, Aurora A. It is filed as biochemical. The following applies: recombinant protein (Upstate). As to the method: as §1

Experiment [1] deals with colon carcinoma cell line SW620. The experiment can be described thus: Cell proliferation inhibitory activity, SW620. The class given is cell-based, human. The following applies: Homo sapiens, SW-620, 96 h, cells counted 4 days later with Cell Counting Kit-8. As to the method: as §3
For experiment [2], the system named is lung carcinoma cell line NCI-H460. The experiment can be described thus: Cell proliferation inhibitory activity, NCI-H460. It is filed as cell-based. The following applies: Homo sapiens, 96 h, cells counted 4 days later with Cell Counting Kit-8. As to the method: as §3
Experiment [3] deals with prostate cancer cell line DU 145. Briefly: Cell proliferation inhibitory activity, DU 145. As to conditions: Homo sapiens, 96 h, cells counted 4 days later with Cell Counting Kit-8. The class given is cell-based, human. As to the method: as §3

Structures are written as SMILES. pIC50: −log10 of the molar value. Where only a bound is given, the exact number is not on record here.

T2 sequence (Q00526 whole entry): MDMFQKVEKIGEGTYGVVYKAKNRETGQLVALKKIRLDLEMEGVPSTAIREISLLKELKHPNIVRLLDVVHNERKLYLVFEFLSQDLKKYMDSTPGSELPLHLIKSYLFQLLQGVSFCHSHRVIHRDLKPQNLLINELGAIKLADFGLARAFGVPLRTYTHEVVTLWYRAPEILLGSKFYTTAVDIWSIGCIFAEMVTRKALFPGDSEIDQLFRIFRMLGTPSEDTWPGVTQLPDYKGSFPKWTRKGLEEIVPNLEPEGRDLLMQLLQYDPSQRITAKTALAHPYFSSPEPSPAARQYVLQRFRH
T2 sequence (P24864 whole entry partner): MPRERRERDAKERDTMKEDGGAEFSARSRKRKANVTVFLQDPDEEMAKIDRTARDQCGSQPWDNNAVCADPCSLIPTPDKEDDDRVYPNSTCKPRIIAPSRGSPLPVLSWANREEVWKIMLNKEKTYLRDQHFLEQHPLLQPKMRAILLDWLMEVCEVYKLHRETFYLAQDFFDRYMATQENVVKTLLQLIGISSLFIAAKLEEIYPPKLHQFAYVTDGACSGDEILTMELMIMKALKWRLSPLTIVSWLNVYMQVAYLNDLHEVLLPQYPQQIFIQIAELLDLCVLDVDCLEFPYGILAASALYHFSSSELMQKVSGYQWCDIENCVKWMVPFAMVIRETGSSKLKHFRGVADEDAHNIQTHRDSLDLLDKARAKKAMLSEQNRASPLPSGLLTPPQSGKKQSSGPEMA
T1 sequence (P06493 whole entry): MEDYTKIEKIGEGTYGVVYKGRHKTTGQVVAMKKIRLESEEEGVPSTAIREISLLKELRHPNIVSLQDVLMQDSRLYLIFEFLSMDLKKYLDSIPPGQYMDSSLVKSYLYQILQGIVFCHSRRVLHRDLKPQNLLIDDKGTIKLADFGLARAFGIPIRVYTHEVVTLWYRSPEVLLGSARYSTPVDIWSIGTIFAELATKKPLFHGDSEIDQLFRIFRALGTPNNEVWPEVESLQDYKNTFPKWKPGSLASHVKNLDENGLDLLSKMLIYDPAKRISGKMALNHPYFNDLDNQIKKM
T1 sequence (P14635 whole entry partner): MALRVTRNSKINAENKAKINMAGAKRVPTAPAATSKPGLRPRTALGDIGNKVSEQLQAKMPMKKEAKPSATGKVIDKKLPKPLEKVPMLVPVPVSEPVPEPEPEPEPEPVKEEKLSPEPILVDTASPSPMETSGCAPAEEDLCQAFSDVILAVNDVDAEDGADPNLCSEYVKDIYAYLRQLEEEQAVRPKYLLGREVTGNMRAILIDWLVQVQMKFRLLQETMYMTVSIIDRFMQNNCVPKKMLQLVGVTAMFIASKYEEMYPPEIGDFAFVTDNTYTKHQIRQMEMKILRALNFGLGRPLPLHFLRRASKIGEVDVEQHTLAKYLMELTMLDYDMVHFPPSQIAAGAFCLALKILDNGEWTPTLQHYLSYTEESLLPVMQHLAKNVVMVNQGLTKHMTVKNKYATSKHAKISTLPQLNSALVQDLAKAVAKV

As to `O=C(CNc1ccc(Cl)cc1)Nc1nc2ccc3[nH]ncc3c2s1` [compound 9], the pIC50 on CDK1/Cyclin B complex is 6.43; on CDK2/Cyclin E complex, 7.40; on CDK3/Cyclin E complex, 7.09; in the experiment on leukemia cell line KG-1a it was greater than 7.00.
On to `CC(C)CC(Nc1cccc(O)c1)C(=O)Nc1nc2ccc3[nH]ncc3c2s1` (centres unmarked) [compound 25], for which the pIC50 is 6.86 on Aurora A; 6.44 at CDK2/Cyclin E complex; 6.35 on CDK3/Cyclin E complex; 5.80 in experiment [1]; 5.49 in experiment [2]; greater than 7.00 with leukemia cell line KG-1a.
As for `CCOC(=O)c1cc(NC(C)(C)C(=O)Nc2nc3ccc4[nH]ncc4c3s2)ccc1Cl` [compound 44], the pIC50 on Aurora A is 6.97; at CDK2/Cyclin E complex, 6.80; on CDK3/Cyclin E complex, 6.80; in experiment [3], 5.35; in the experiment with leukemia cell line KG-1a, greater than 7.00.
For the compound `CC(C)(Nc1ccc(F)c(F)c1)C(=O)Nc1nc2c(C(F)(F)F)cc3[nH]ncc3c2s1` [compound 72], the pIC50 on CDK2/Cyclin E complex was 6.47; on CDK3/Cyclin E complex it was 6.74; in experiment [1], 5.62; in experiment [3], 5.46.
`CC(C)(Nc1ccc(F)cc1)C(=O)Nc1nc2c(C(F)(F)F)cc3[nH]ncc3c2s1` [compound 74]: the pIC50 is 6.52 at CDK2/Cyclin E complex, 6.79 on CDK3/Cyclin E complex, 5.57 in experiment [1] and 5.41 in experiment [3].
In the case of `CC(C)(Nc1cccc(NS(C)(=O)=O)c1)C(=O)Nc1nc2c(C(F)(F)F)cc3[nH]ncc3c2s1` [compound 79], the pIC50 was 6.77 on CDK2/Cyclin E complex, 6.58 at CDK3/Cyclin E complex, 5.62 in experiment [1] and 5.51 in experiment [3].
With `CC(C)(Nc1ccc(Cl)c(NC(=O)C2CC2)c1)C(=O)Nc1nc2c(C(F)(F)F)cc3[nH]ncc3c2s1` [compound 80], the pIC50 at CDK2/Cyclin E complex is 6.81; at CDK3/Cyclin E complex, 6.78; in experiment [1], 5.64; in experiment [3], 5.39.
For `CC(C)(Nc1cccc(C(=O)NCC(=O)OCCO)c1)C(=O)Nc1nc2c(C(F)(F)F)cc3[nH]ncc3c2s1` [compound 86], the pIC50 at Aurora A was 7.18; on CDK1/Cyclin B complex, 6.32; on CDK2/Cyclin E complex, 6.56; on CDK3/Cyclin E complex, 7.07.
Turning to `CC(C)(Nc1ccc(Cl)c(NC(=O)OCCO)c1)C(=O)Nc1nc2c(C(F)(F)F)cc3[nH]ncc3c2s1` [compound 89], the pIC50 is 6.65 at CDK2/Cyclin E complex, 6.98 at CDK3/Cyclin E complex, 5.66 in experiment [1] and 5.35 in experiment [3].
Regarding `CC(C)(Nc1ccc(Cl)nc1)C(=O)Nc1nc2c(C(F)(F)F)cc3[nH]ncc3c2s1` [compound 96], the pIC50 is 6.46 at CDK2/Cyclin E complex; 6.56 on CDK3/Cyclin E complex; 5.64 in experiment [1]; 5.44 in experiment [3]; 5.41 in experiment [2].
Turning to `CC(C)(Nc1cccc(C(=O)NCCC(N)=O)c1)C(=O)Nc1nc2c(C(F)(F)F)cc3[nH]ncc3c2s1` [compound 101], the pIC50 on Aurora A is 6.93; on CDK1/Cyclin B complex, 7.41; on CDK2/Cyclin E complex, 7.52; on CDK3/Cyclin E complex it was 7.68; in experiment [1], 5.70; in experiment [3], 5.36.
Turning to `CC(C)(Nc1ccc(Cl)c(C(=O)NCCCS(N)(=O)=O)c1)C(=O)Nc1nc2c(C(F)(F)F)cc3[nH]ncc3c2s1` [compound 102], the pIC50 on Aurora A was 7.41; at CDK1/Cyclin B complex, 6.98; at CDK2/Cyclin E complex it was 7.12; at CDK3/Cyclin E complex, 7.52.
As for `CC(C)(Nc1ccc(Cl)c(C(=O)O)c1)C(=O)Nc1nc2c(C(F)(F)F)cc3[nH]ncc3c2s1` [compound 136], the pIC50 at Aurora A was 7.72; on CDK1/Cyclin B complex, 6.35; at CDK2/Cyclin E complex it was 6.53; at CDK3/Cyclin E complex, 7.00.
Turning to `CC(C)(Nc1cccc(C(=O)NCCCC(=O)O)c1)C(=O)Nc1nc2c(C(F)(F)F)cc3[nH]ncc3c2s1` [compound 140], the pIC50 on Aurora A is 6.61; on CDK1/Cyclin B complex, 6.35; at CDK2/Cyclin E complex, 6.37; on CDK3/Cyclin E complex, 6.80.
